Source: patent US20240285547A1, “NEPHROTOXICITY REDUCING AGENT” (Nippon Shinyaku Co., Ltd., priority 2021, published 2024)

What was measured:
[1] = system: C57BL/6J male mice; assay: Evaluation of nephrotoxicity reducing effects of D-mannitol: serum BUN and Cre after tail vein administration of PMO dosing solutions; details: D-mannitol in PMO dosing solution vs control dosing solution comprising no D-mannitol
Excerpt: The antisense oligomers of PMO Nos. 1, 2, 6, 7, and 10 were each dissolved in water for injection comprising 0.9% sodium chloride (manufactured by Otsuka Pharmaceutical Co., Ltd.) to prepare a control dosing solution comprising each of the antisense oligomers at the concentrations shown in Tables 2, 3, 6, 7, and 8 and comprising no D-mannitol. Also, the antisense oligomers of PMO Nos. 3 and 4 were each dissolved in 5% glucose (manufactured by Otsuka Pharmaceutical Co., Ltd.) to prepare a control dosing solution comprising each of the antisense oligomers at the concentrations shown in Tables 4 and 5 and comprising no D-mannitol. […]
The obtained dosing solutions were administered into the tail vein of 6-week-old C57BL/6J male mice at 4, 10, and 20 mL/kg. Next day, serum was collected from the mice, and the blood urea nitrogen (BUN) values and blood creatinine (Cre) values were measured with the urease-GIDH method and the enzymatic method, respectively, using automatic biochemical analyzers JCA-BM6050 or JCA-BM8060 (manufactured by JEOL Ltd.).

[2] = Evaluation of precipitation suppressing effects with D-mannitol (absorbance at 620 nm in presence of ions assumed to be in urine); assay type: physicochemical; details: D-mannitol as medium for PMO Nos. 1, 2, 3, 5, 6, 7, ions assumed to be in urine, 37° C.
Method: The amount of precipitation in the presence of ions assumed to be in urine and precipitation suppressing effects of D-mannitol were evaluated on the antisense oligomers of PMO Nos. 1, 2, 3, 5, 6, and 7 (SEQ ID NO: 1, 2, 3, 5, 6, and 7) among those listed in Table 1 to further verify their utility for pharmaceutical applications.

[3] = system: C57BL/6J male mice; assay: Evaluation of nephrotoxicity reducing effects of D-sorbitol: serum BUN and Cre after tail vein administration of PMO dosing solutions; details: D-sorbitol in PMO dosing solution vs dosing solution comprising no D-sorbitol
Method: Next, the antisense oligomer of PMO No. 2 was dissolved in a solution obtained by dissolving D-sorbitol (manufactured by Maruishi Pharmaceutical Co., Ltd.) with physiological saline to prepare a dosing solution comprising the antisense oligomer and D-sorbitol at the concentrations shown in Table 9. Also, the antisense oligomer of PMO No. 3 was dissolved in a solution obtained by dissolving D-sorbitol with water for injection to prepare a dosing solution comprising the antisense oligomer and D-sorbitol at the concentrations shown in Table 10.
The obtained dosing solutions were administered into the tail vein of 6-week-old C57BL/6J male mice (N=3) at 4 and 10 mL/kg. Next day, serum was collected from the mice, and the blood urea nitrogen (BUN) values and blood creatinine (Cre) values were measured with the urease-GIDH method and the enzymatic method, respectively, using automatic biochemical analyzers JCA-BM8060 (manufactured by JEOL Ltd.). It was determined that the nephrotoxicity was reduced in a case where both of the BUN values and Cre values decreased in the mice to which the dosing solution comprising D-sorbitol has been administered, compared to the mice to which the dosing solution comprising no D-sorbitol has been administered.

Question: For `OC[C@@H](O)[C@@H](O)[C@H](O)[C@H](O)CO` [D-mannitol], which Nephrotoxicity reducing effect [1] is on record?
Answer: reduce nephrotoxicity

Question: What about the Precipitation suppressing effect [2] of the same molecule?
Answer: suppress the precipitation of antisense oligomers

Question: Which Nephrotoxicity reducing effect [3] does the source give for `OC[C@@H](O)[C@@H](O)[C@H](O)[C@@H](O)CO` [D-sorbitol] here?
Answer: reduce nephrotoxicity
